Among the test systems are DLD-1 colon; DMS 114 small cell lung; KM20L2 colon; LXFL 529 NSCLC; RXF-631 renal; SNB-78 CNS; XF 498 CNS; MDA-N; HOP-18 NSCLC.
What all share (experiment): NCI tumour cell line growth inhibition, 48 h

SMILES strings stand for the structures. “And” between values parts separate entries of the source, which are not always exact repeats. Equal entries are not always repeated.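 Results reflect a 48-hour exposure of cells in 96-well plates to compound at five concentrations. GI50 marks 50% less growth. TGI is the concentration that stops growth completely.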

As to `N#Cc1cc([N+](=O)[O-])ccc1NC(=O)C(=O)Nc1n[nH]c(N)n1`, the TGI in the assay with DLD-1 colon, with DMS 114 small cell lung, in the assay on KM20L2 colon, in the assay with LXFL 529 NSCLC, in the assay with RXF-631 renal and with SNB-78 CNS was above 100 µM in each case. Further, the TGI in the assay on XF 498 CNS is above 100 µM.
As for `CC(=O)CNC(=O)OC(C)(C)C`, the TGI in the assay on DLD-1 colon, in the assay with DMS 114 small cell lung, in the assay with KM20L2 colon, in the assay on SNB-78 CNS and in the assay on XF 498 CNS was above 100 µM throughout.
For the compound `COc1ccc(-c2cc(=O)c3c(OC)c(OC)c(OC)cc3o2)cc1`, the TGI with MDA-N is above 100 µM.
Regarding `C/C(CC(=O)Nc1ccc(C)cc1C)=N/N=C(N)N`, the TGI in the assay on DLD-1 colon, in the assay on DMS 114 small cell lung, with KM20L2 colon, in the assay on LXFL 529 NSCLC, with RXF-631 renal and with SNB-78 CNS was above 100 µM in each case. The TGI with XF 498 CNS is above 100 µM.
In the case of `COC12C=C(C)C(CC1)CC2C(=O)O` (stereo not drawn), the TGI in the assay with DLD-1 colon, in the assay with HOP-18 NSCLC, in the assay on KM20L2 colon, with LXFL 529 NSCLC, with SNB-78 CNS and with XF 498 CNS was above 100 µM throughout.
With `O=C(/N=N/C(=O)OCc1ccccc1)OCc1ccccc1`, the TGI in the assay with DMS 114 small cell lung, in the assay on HOP-18 NSCLC, in the assay on KM20L2 colon, in the assay on LXFL 529 NSCLC, in the assay on RXF-631 renal and in the assay with SNB-78 CNS was above 100 µM throughout. In the assay on XF 498 CNS, this compound returned a TGI above 100 µM.
For `COc1ccc(/C=C/CN(C)CCc2ccccc2)cc1OC`, the TGI in the assay on DMS 114 small cell lung, with KM20L2 colon, in the assay with LXFL 529 NSCLC and in the assay with SNB-78 CNS was above 100 µM each time.
With `COc1ccc(C2=CC3CCC2C3)cc1` (stereo not drawn), the TGI in the assay on DLD-1 colon, in the assay on HOP-18 NSCLC, in the assay on LXFL 529 NSCLC, with SNB-78 CNS and in the assay with XF 498 CNS was above 100 µM throughout.
`CC(C)(C)C1C=C(Sc2ccccc2)C(=O)O1` (stereo not drawn): the TGI with DLD-1 colon, with DMS 114 small cell lung, with HOP-18 NSCLC, in the assay with KM20L2 colon, in the assay on LXFL 529 NSCLC and in the assay on SNB-78 CNS was above 100 µM each time.
`[Cl-].[Dy+3].[O-]/N=C(\c1ccccc1)c1ccccn1.[O-]/N=C(\c1ccccc1)c1ccccn1.[O-]/N=C(\c1ccccc1)c1ccccn1`: the GI50 in the assay with DLD-1 colon was 35.9 µM; in the assay with DMS 114 small cell lung, 24.6 µM; in the assay with KM20L2 colon, 42 µM; with LXFL 529 NSCLC, 41.2 µM. Besides, the TGI in the assay on DLD-1 colon was above 100 µM; in the assay on DMS 114 small cell lung, 77.6 µM; in the assay on KM20L2 colon, above 100 µM; with LXFL 529 NSCLC, above 100 µM.
In the case of `CCc1ccc(/C=C\c2cc(OC)c(OC)c(OC)c2)cc1`, the GI50 in the assay with DLD-1 colon was 0.0358 µM; in the assay with DMS 114 small cell lung, 0.0156 µM; with KM20L2 colon, 0.0164 µM; in the assay with LXFL 529 NSCLC, 0.0233 µM; with SNB-78 CNS, 0.0224 µM. In addition, the TGI with DLD-1 colon was 27.8 µM; with DMS 114 small cell lung, 0.228 µM and 0.057 µM; with KM20L2 colon, 0.125 µM and 0.032 µM; in the assay on LXFL 529 NSCLC it was 27.3 µM; in the assay with MDA-N, 0.00395 µM; in the assay on SNB-78 CNS, above 100 µM.
Regarding `CCC[CH2][Sn]1([CH2]CCC)[O]Cc2nc(C)ccc2[O]1`, the GI50 is 10.2 µM in the assay on DLD-1 colon; 3.07 µM in the assay with DMS 114 small cell lung; 10.9 µM in the assay on KM20L2 colon; 2.07 µM with LXFL 529 NSCLC; 2.38 µM in the assay with SNB-78 CNS; 2.34 µM in the assay with XF 498 CNS. The TGI was 21.9 µM in the assay with DLD-1 colon; 9.3 µM in the assay with DMS 114 small cell lung; 23.6 µM with KM20L2 colon; 5.75 µM with LXFL 529 NSCLC; 6.39 µM with SNB-78 CNS; 7.8 µM with XF 498 CNS.
Regarding `CC[CH2][Sn]([CH2]CC)([O]C(=O)c1cccnc1SC)[O][Sn]([CH2]CC)([CH2]CC)[O]C(=O)c1cccnc1SC`, the GI50 with DLD-1 colon is 0.219 µM; in the assay with DMS 114 small cell lung, 0.0726 µM; in the assay on HOP-18 NSCLC it was 0.689 µM; in the assay with KM20L2 colon, 0.775 µM; in the assay on LXFL 529 NSCLC, 0.0198 µM; with MDA-N it was 1.27 µM. In addition, the values for the GI50 in the assay on SNB-78 CNS and in the assay with XF 498 CNS were 0.138 µM and 0.159 µM, respectively. The TGI came to 0.998 µM with DLD-1 colon; 0.222 µM in the assay with DMS 114 small cell lung; 1.81 µM in the assay with HOP-18 NSCLC; 2.11 µM in the assay with KM20L2 colon; 0.155 µM in the assay with LXFL 529 NSCLC; 2.52 µM in the assay with MDA-N. The TGI was found to be 1.14 µM in the assay with SNB-78 CNS and 0.296 µM in the assay with XF 498 CNS.
For `CC1=NN(C(=O)Nc2ccccc2)C(=O)C2CCC(=O)N12` (stereo not drawn), the TGI in the assay with DLD-1 colon, in the assay with DMS 114 small cell lung, in the assay with KM20L2 colon, in the assay with LXFL 529 NSCLC, in the assay with RXF-631 renal and in the assay with SNB-78 CNS was above 100 µM throughout. Further, in the assay with XF 498 CNS, the TGI is above 100 µM.
On to `COC(=O)/C(=N/NC(=O)C[N+](C)(C)C)C(C(=O)OC)C(=O)C(=O)Nc1ccc(F)cc1` (stereo not drawn), for which the TGI in the assay on DLD-1 colon, in the assay on DMS 114 small cell lung, with HOP-18 NSCLC, with KM20L2 colon, with LXFL 529 NSCLC and with RXF-631 renal was above 100 µM in each case. The same compound returned a TGI in the assay with SNB-78 CNS above 100 µM.
With `O=c1/c(=C/c2ccco2)sc2nc3ccccc3n12`, the GI50 in the assay with DLD-1 colon, in the assay with DMS 114 small cell lung, in the assay on LXFL 529 NSCLC, in the assay with RXF-631 renal, with SNB-78 CNS and in the assay on XF 498 CNS was above 100 µM in each case. Besides, the TGI was above 100 µM in the assay on DLD-1 colon; above 100 µM in the assay with DMS 114 small cell lung; above 100 µM in the assay with HOP-18 NSCLC; above 10 µM with KM20L2 colon; above 100 µM in the assay on LXFL 529 NSCLC; above 100 µM in the assay on RXF-631 renal. The TGI in the assay on SNB-78 CNS and in the assay on XF 498 CNS was above 100 µM each time.

The values are drawn from PubChem BioAssay (NCI).
